How the values were obtained:
[1] = molecular target: Small conductance calcium-activated potassium channel (Rattus norvegicus, UniProt P70604+P70606+P70605); assay: The blocking of apamin-sensitive [Ca2+]-activated K+ (SKCa) channel was assessed by the compounds ability to inhibit the after-hyperpolarization in cultured rat superior cervical ganglion neurons; type: functional
[2] = molecular target: Small conductance calcium-activated potassium channel (Rattus norvegicus) (UniProt P70604+P70606+P70605); assay: The ratio of compound concentrations and dequalinium that cause 50% inhibition of the after-hyperpolarization; type: functional

SMILES: c1ccc2c(c1)c1cc[n+]2Cc2ccc(cc2)CCc2ccc(cc2)C[n+]2ccc(c3ccccc32)NCCCCCCCCCCN1
- IC50 [1]: 180 nM
- EMR [2]: 0.57

SMILES: Nc1cc[n+](Cc2cccc(-c3cccc(C[n+]4ccc(N)c5ccccc54)c3)c2)c2ccccc12
- IC50 [1]: 290 nM
- EMR [2]: 0.55

SMILES: c1ccc2c(c1)c1cc[n+]2Cc2ccc(cc2)-c2ccc(cc2)C[n+]2ccc(c3ccccc32)NCc2ccc(cc2)Cc2ccc(cc2)CN1
- IC50 [1]: 150 nM
- EMR [2]: 0.26

SMILES: C1=C\c2ccc(cc2)C[n+]2ccc(c3ccccc32)NCCCCCCCCCCNc2cc[n+](c3ccccc23)Cc2ccc/1cc2
- IC50 [1]: 150 nM
- EMR [2]: 0.29

SMILES: COc1c2cccc1C[n+]1ccc(c3ccccc31)NCc1ccc(cc1)CNc1cc[n+](c3ccccc13)C2
- IC50 [1]: 25 nM
- EMR [2]: 0.019

SMILES: c1cc2nc(c1)-c1ccc(cc1)C[n+]1ccc(c3ccccc31)NCc1ccc(cc1)Cc1ccc(cc1)CNc1cc[n+](c3ccccc13)Cc1ccc-2cc1
- IC50 [1]: 380 nM
- EMR [2]: 0.88

SMILES: Oc1c2cccc1C[n+]1ccc(c3ccccc31)NCc1ccc(cc1)CNc1cc[n+](c3ccccc13)C2
- IC50 [1]: 60 nM
- EMR [2]: 0.14

SMILES: c1ccc2c(c1)c1cc[n+]2Cc2ccc3c(c2)Cc2cc(ccc2-3)C[n+]2ccc(c3ccccc32)NCc2ccc(cc2)-c2ccc(cc2)CN1
- IC50 [1]: 120 nM
- EMR [2]: 0.15

SMILES: c1ccc2c(c1)c1cc[n+]2Cc2ccc(cc2)-c2ccc(cc2)C[n+]2ccc(c3ccccc32)NCc2ccc(cc2)-c2ccc(cc2)CN1
- IC50 [1]: 430 nM
- EMR [2]: 0.89

SMILES: c1ccc2c(c1)c1cc[n+]2Cc2ccc3c(c2)Cc2cc(ccc2-3)C[n+]2ccc(c3ccccc32)NCCCCCCCCCCN1
- IC50 [1]: 90 nM
- EMR [2]: 0.11

SMILES: c1ccc2c(c1)c1cc[n+]2Cc2ccc(cc2)Cc2ccc(cc2)C[n+]2ccc(c3ccccc32)NCCCCCCCCCCN1 [UCL-1530]
- IC50 [1]: 80 nM
- EMR [2]: 0.16

SMILES: c1ccc2c(c1)c1cc[n+]2Cc2ccc(cc2)Cc2ccc(cc2)C[n+]2ccc(c3ccccc32)NCc2ccc(cc2)-c2ccc(cc2)CN1
- IC50 [1]: 280 nM
- EMR [2]: 0.8

SMILES: c1cc2cc(c1)C[n+]1ccc(c3ccccc31)NCc1ccc(cc1)CNc1cc[n+](c3ccccc13)C2
- IC50 [1]: 3 nM
- EMR [2]: 0.01

SMILES: c1ccc2c(c1)c1cc[n+]2Cc2ccc(cc2)Cc2ccc(cc2)C[n+]2ccc(c3ccccc32)NCc2ccc(cc2)Cc2ccc(cc2)CN1
- IC50 [1]: 260 nM
- EMR [2]: 0.31

SMILES: Nc1cc[n+](Cc2ccc(-c3ccc(C[n+]4ccc(N)c5ccccc54)cc3)cc2)c2ccccc12
- IC50 [1]: 380 nM
- EMR [2]: 0.4

SMILES: c1ccc2c(c1)c1cc[n+]2CCCCCCCCCC[n+]2ccc(c3ccccc32)NCc2ccc(cc2)-c2ccc(cc2)CN1
- IC50 [1]: 210 nM
- EMR [2]: 0.25

SMILES: c1cc2cc(c1)CNc1cc[n+](c3ccccc13)Cc1cccc(c1)C[n+]1ccc(c3ccccc31)NC2
- IC50 [1]: 130 nM
- EMR [2]: 0.22

SMILES: Nc1cc[n+](Cc2ccc(-c3cccc(-c4ccc(C[n+]5ccc(N)c6ccccc65)cc4)n3)cc2)c2ccccc12
- IC50 [1]: 360 nM
- EMR [2]: 0.59

SMILES: Nc1cc[n+](Cc2cccc(C[n+]3ccc(N)c4ccccc43)c2)c2ccccc12
- EMR [2]: 1.32

SMILES: c1cc2cc(c1)CNc1cc[n+](c3ccccc13)Cc1ccc(cc1)C[n+]1ccc(c3ccccc31)NC2
- IC50 [1]: 70 nM
- EMR [2]: 0.18

SMILES: Nc1cc[n+](Cc2ccc(CCc3ccc(C[n+]4ccc(N)c5ccccc54)cc3)cc2)c2ccccc12
- IC50 [1]: 410 nM
- EMR [2]: 0.71

SMILES: Cc1cc(N)c2ccccc2[n+]1CCCCCCCCCC[n+]1c(C)cc(N)c2ccccc21.[Cl-].[Cl-] [DEQUALINIUM CHLORIDE]
- IC50 [1]: 650 nM
- EMR [2]: 1

SMILES: Nc1cc[n+](Cc2ccc3c(c2)Cc2cc(C[n+]4ccc(N)c5ccccc54)ccc2-3)c2ccccc12
- IC50 [1]: 310 nM
- EMR [2]: 0.33

SMILES: Nc1cc[n+](Cc2ccc(C[n+]3ccc(N)c4ccccc43)cc2)c2ccccc12
- IC50 [1]: 2800 nM
- EMR [2]: 3.7

SMILES: Nc1cc[n+](Cc2ccc(/C=C\c3ccc(C[n+]4ccc(N)c5ccccc54)cc3)cc2)c2ccccc12
- IC50 [1]: 190 nM
- EMR [2]: 0.24

SMILES: c1ccc2c(c1)c1cc[n+]2Cc2ccc(cc2)-c2ccc(cc2)C[n+]2ccc(c3ccccc32)NCCCCCCCCCCN1
- IC50 [1]: 170 nM
- EMR [2]: 0.26

SMILES: c1ccc2c(c1)c1cc[n+]2Cc2ccc(cc2)C[n+]2ccc(c3ccccc32)NCc2ccc(cc2)CN1
- IC50 [1]: 28 nM
- EMR [2]: 0.05

SMILES: c1cc2cc(c1)-c1cccc(c1)C[n+]1ccc(c3ccccc31)NCCCCCCCCCCNc1cc[n+](c3ccccc13)C2
- IC50 [1]: 110 nM
- EMR [2]: 0.28

SMILES: Oc1c2cc(I)cc1C[n+]1ccc(c3ccccc31)NCc1ccc(cc1)CNc1cc[n+](c3ccccc13)C2
- IC50 [1]: 100 nM
- EMR [2]: 0.16

SMILES: C1=C\c2ccc(cc2)C[n+]2ccc(c3ccccc32)NCc2ccc(cc2)Cc2ccc(cc2)CNc2cc[n+](c3ccccc23)Cc2ccc/1cc2
- IC50 [1]: 250 nM
- EMR [2]: 1.1

SMILES: Nc1cc[n+](Cc2ccc(Cc3ccc(C[n+]4ccc(N)c5ccccc54)cc3)cc2)c2ccccc12
- IC50 [1]: 450 nM
- EMR [2]: 0.39
